Article PMC8284440, “Toward New Transmission-Blocking Combination Therapies: Pharmacokinetics of 10-Amino-Artemisinins and 11-Aza-Artemisinin and Comparison with Dihydroartemisinin and Artemether” (Antimicrobial Agents and Chemotherapy, 2021)
Like-named read-outs stand apart in the source and are kept apart here.

Assays:
P. falciparum 7G8 = test system: P. falciparum 7G8; parameters: method as in ref 5 (supplement; main text 63); conditions: CQ resistant; ref 5 (supplement; main text 63); read-out: Antimalarial activities IC50 7G8; cited from earlier work
P. falciparum TM93-C1088 = test system: P. falciparum TM93-C1088; parameters: method as in ref 5 (supplement; main text 63); conditions: atovaquone and CQ resistant; ref 5 (supplement; main text 63); read-out: Antimalarial activities IC50 TM93-C1088; cited from earlier work
P. falciparum TM-C2B = test system: P. falciparum TM-C2B; parameters: method as in ref 5 (supplement; main text 63); conditions: atovaquone and CQ resistant; ref 5 (supplement; main text 63); read-out: Antimalarial activities IC50 TM-C2B; cited from earlier work
P. falciparum TM91-C235 = test system: P. falciparum TM91-C235; parameters: method as in ref 5 (supplement; main text 63); conditions: CQ and mefloquine resistant; ref 5 (supplement; main text 63); read-out: Antimalarial activities IC50 TM91-C235; cited from earlier work
[1] = parameters: method as in PMID 25759576; conditions: p.o., mouse; cited from earlier work
[2] = parameters: method as in PMID 25759576; conditions: i.v., mouse; cited from earlier work
[3] = test system: liver stage P. berghei ANKA GFP-Luc-SMcon sporozoites; parameters: method as in ref 2 (supplement; main text 48); conditions: ref 2 (supplement; main text 48), cited from earlier work; for IC50: 48 h, ± SD
HepG2 = conditions: cited from earlier work
P. falciparum NF54 [4] = test system: P. falciparum NF54; parameters: method as in ref 1 and 2 (supplement; main text 47, 48); conditions: Table S1, ± SEM; ref 1 and 2 (supplement; main text 47, 48); cited from earlier work
P. falciparum D6 = test system: P. falciparum D6; parameters: method as in ref 5 (supplement; main text 63); conditions: CQ sensitive; ref 5 (supplement; main text 63); read-out: Antimalarial activities IC50 D6; cited from earlier work
P. falciparum W2 [5] = test system: P. falciparum W2; parameters: method as in ref 5 (supplement; main text 63); conditions: CQ resistant; ref 5 (supplement; main text 63); read-out: Antimalarial activities IC50 W2; cited from earlier work
P. falciparum K1 [6] = test system: P. falciparum K1; parameters: method as in ref 1 and 2 (supplement; main text 47, 48); conditions: Table S1, ± SEM; ref 1 and 2 (supplement; main text 47, 48); cited from earlier work
[7] = test system: Chinese hamster ovary (CHO) cells; conditions: cited from earlier work
P. falciparum W2 [8] = test system: P. falciparum W2; parameters: method as in ref 1 and 2 (supplement; main text 47, 48); conditions: Table S1, ± SEM; ref 1 and 2 (supplement; main text 47, 48); cited from earlier work
[9] = test system: late stage (>90% stage IV and V) P. falciparum NF54 gametocytes; conditions: cited from earlier work
[10] = test system: early stage (>90% stage I-III) P. falciparum NF54 gametocytes; conditions: cited from earlier work
[11] = Preliminary PK assessment in the murine model (toxicity); assay type: in vivo
Source text: Overall, artemiside, artemisone, and the arylurea are the frontrunners in terms of global efficacies and relatively low toxicities in vitro. However, expression of therapeutic efficacy depends not only on biological activity but also on pharmacokinetic (PK) properties. This becomes important for the envisaged drug combinations ([67]). We report here on the in vitro absorption, distribution, metabolism, and excretion (ADME) properties and PK measurement in a murine model of the compounds of Fig. 2. […] The data are directly compared to those of DHA and artemether. An evaluation of the compounds to be taken forward is then presented.

P. falciparum K1 [12] = test system: P. falciparum K1; parameters: method as in ref 4 (supplement; main text 62); conditions: Table S2, ± SEM; ref 4 (supplement; main text 62); read-out: Antimalarial activities IC50 K1; cited from earlier work
P. falciparum W2 [13] = test system: P. falciparum W2; parameters: method as in ref 4 (supplement; main text 62); conditions: Table S2, ± SEM; ref 4 (supplement; main text 62); read-out: Antimalarial activities IC50 W2; cited from earlier work
P. falciparum NF54 [14] = test system: P. falciparum NF54; parameters: method as in ref 4 (supplement; main text 62); conditions: Table S2, ± SEM; ref 4 (supplement; main text 62); read-out: Antimalarial activities IC50 NF54; cited from earlier work
murine cerebral malaria = test system: murine cerebral malaria; parameters: method as in PMID 20691118; conditions: prescribed low dose levels; cited from earlier work
[15] = Table S3, ± SEM, ref 1 and 2 (supplement; main text 47, 48), read-out: Late Stage (LG, Luc 72 h) IC50
[16] = Table S3, ± SEM, ref 1 and 2 (supplement; main text 47, 48), read-out: Early Stage (EG, Luc 48 h) IC50

What does the source list for `OC(c1cc(C(F)(F)F)nc2c(C(F)(F)F)cccc12)C1CCCCN1` (stereo not drawn) [Mefloquine MFQ, Mefloquine]?
IC50 (P. falciparum 7G8): 5.4 ± 1.7 nM; IC50 (P. falciparum TM93-C1088): 16 ± 5 nM; IC50 (P. falciparum TM-C2B): 130 ± 51 nM; IC50 (P. falciparum TM91-C235): 107 ± 41 nM

For `COc1cc(C)c2c(Oc3cccc(C(F)(F)F)c3)c(OC)cc(NC(C)CCCN)c2n1` (stereo not drawn) [Tafenoquine], which AUC [1] is on record?
Its AUC is 11,368 ± 1,232 min/μmol/liter.

What about the Cmax [1] of the same compound?
Its Cmax is 3.06 ± 0.37 µM.

What about the F [1] of the same compound?
The F was 55 ± 2%.

And the Tmax [1]?
The Tmax was 9.0 ± 1.0 h.

What about the AUC [2] of the same compound?
The AUC was 2,363 ± 146 min/μmol/liter.

And the CLint [2]?
Its CLint is 1.84 mL/min/kg.

What about the V [2] of the same compound?
Its V is 2.34 ± 0.0 L/kg.

What about the t1/2 [2] of the same compound?
The t1/2 was 43.7 ± 1.5 h.

For `O=C1C(O)=C([C@H]2CC[C@H](c3ccc(Cl)cc3)CC2)C(=O)c2ccccc21` [Atovaquone], which IC50 (P. falciparum 7G8) is on record?
The IC50 was 3.1 ± 0.9 nM.

What about the IC50 (P. falciparum TM93-C1088) of the same compound?
Its IC50 is 18800 nM.

What about the IC50 (P. falciparum TM-C2B) of the same compound?
The IC50 was 31800 nM.

What about the IC50 [3] of the same compound?
Its IC50 is 2.52 ± 0.997 nM.

And the Maximum inhibition % ([3]; at 0.5 µM)?
Its Maximum inhibition % is 94.85±2.76%.

And the EC50 (HepG2)?
The EC50 was over 250 nM.

And the IC50 (P. falciparum TM91-C235)?
The IC50 was 2.2 ± 0.7 nM.

For `COc1ccc(C[C@H](N)C(=O)N[C@H]2[C@@H](O)[C@H](n3cnc4c(N(C)C)ncnc43)O[C@@H]2CO)cc1` [Puromycin], which IC50 [3] is on record?
The IC50 was 22.7 ± 4.53 nM.

And the Maximum inhibition % ([3]; at 5 µM)?
The Maximum inhibition % was 110±4.24%.

What about the EC50 (HepG2) of the same compound?
Its EC50 is 117 nM.

Which results are given for `CCN(CC)CCCC(C)Nc1ccnc2cc(Cl)ccc12` (stereo not drawn) [Chloroquine]?
IC50 (P. falciparum 7G8): 84 ± 18 nM; IC50 (P. falciparum TM93-C1088): 360 ± 38 nM; IC50 (P. falciparum TM-C2B): 95 ± 23 nM; IC50 (P. falciparum NF54 [4]): 10 ± 3 nM; IC50 (P. falciparum D6): 16 ± 2 nM; IC50 (P. falciparum W2 [5]): 195 ± 70 nM; IC50 (P. falciparum K1 [6]): 154 ± 14 nM; IC50 (P. falciparum TM91-C235): 70 ± 12 nM

For `C[C@H]1[C@H](Nc2ccc(F)cc2)O[C@@H]2O[C@@]3(C)CC[C@H]4[C@H](C)CC[C@@H]1[C@@]24OO3` [Arylamine 8], which EC50 ([7]; read-out: Cytotoxicity EC50 CHO, MTT, ±SD, ref 1 and 2 (supplement; main text 47, 48)) is on record?
Its EC50 is 2900 ± 1400 nM.

What about the IC50 (P. falciparum W2 [8]) of the same compound?
The IC50 was 3 ± 1 nM.

What about the IC50 [9, 15] of the same compound?
The IC50 was 16.4 ± 6.38 nM.

And the IC50 (P. falciparum NF54 [4])?
The IC50 was 1.3 ± 0.6 nM.

What about the IC50 (P. falciparum K1 [6]) of the same compound?
Its IC50 is 0.64 ± 0.1 nM.

And the IC50 [10, 16]?
Its IC50 is 38.2 ± 9 nM.

And the “Toxicity in preliminary PK assessment” value [11]?
Its value is “untoward toxicity”.

With `CN(C)c1ccc2nc3ccc(=[N+](C)C)cc-3sc2c1` [Methylene Blue, reference compound] as the compound, how does the EC50 [7] read?
Its EC50 is 52600 ± 4500 nM.

What about the IC50 (P. falciparum W2 [8]) of the same compound?
The IC50 was 5.13 ± 0.31 nM.

And the IC50 [9, 15]?
Its IC50 is 143 nM.

And the IC50 (P. falciparum NF54 [4])?
The IC50 was 5 ± 0.8 nM.

What about the IC50 (P. falciparum K1 [6]) of the same compound?
Its IC50 is 6.45 ± 0.3 nM.

And the IC50 [10, 16]?
The IC50 was 95 nM.

With `C[C@H]1[C@H](OC(=O)CCC(=O)O)O[C@@H]2O[C@@]3(C)CC[C@H]4[C@H](C)CC[C@@H]1[C@@]24OO3` [Artesunate 4, artesunate] as the compound, how does the IC50 (P. falciparum K1 [12]) read?
Its IC50 is 3.26 ± 0.2 nM.

What about the IC50 (P. falciparum W2 [13]) of the same compound?
Its IC50 is 2.4 ± 0.2 nM.

What about the IC50 (P. falciparum 7G8) of the same compound?
Its IC50 is 1.5 ± 0.2 nM.

And the IC50 (P. falciparum TM93-C1088)?
Its IC50 is 1.4 ± 0.1 nM.

And the IC50 (P. falciparum NF54 [14])?
Its IC50 is 3 ± 0.29 nM.

What about the IC50 ([9]; Table S4, n = 1, ref 4 (supplement; main text 62), read-out: Late stage IC50 (Luciferase 72 h)) of the same compound?
Its IC50 is 171 nM.

What about the IC50 (P. falciparum TM-C2B) of the same compound?
Its IC50 is 2.5 ± 0.5 nM.

What about the “Cure of murine cerebral malaria” value (murine cerebral malaria) of the same compound?
The value was “no cure”.

And the IC50 (P. falciparum W2 [5])?
The IC50 was 3 ± 1.6 nM.

And the IC50 ([10]; Table S4, ± SEM, n = 3, ref 4 (supplement; main text 62), read-out: Early stage IC50 (Luciferase 48 h))?
The IC50 was 62.8 ± 3.14 nM.

And the IC50 (P. falciparum TM91-C235)?
Its IC50 is 2.9 ± 1.4 nM.
